Data from patent US6841661B2, “Glycopeptide antibacterial compounds, compositions containing same and methods of using same” (Princeton Univerisity, priority 1999, dated 2005).

Experiments:
[1] = tested on: E. faecium CL 5053 (VanA); experiment: microbe, parasite or virus in culture; format: cell-based; set-up: CL5053 (in vitro testing): unit not given here; details: Tables 7 and 8; unit not given
Excerpt: (§1) National Committee for Clinical Laboratory Standards (NCCLS) guidelines [Methods for Dilution Antimicrobial Susceptibility Tests for Bacteria that Grow Aerobically-Fourth Edition; Approved Standard (NCCLS Document M7-A4, January 1997)] are used to establish the assay, although variations are made to optimize the published method according to the specific needs of the present investigation.
(§2) The test panel currently includes eight enterococci and 13 staphylococci, which are selected based upon their antibiotic susceptibility profiles. The methicillin-sensitive Staphylococcus aureus (MSSA) strain MB2985 (Smith isolate) is used to assesses the potential for serum protein binding of the compounds. The paired Gram-negative strains ASP #49 (envA-) and ASP #50 (envA+) (M. Salvatore/N. Lee) are included to judge membrane effects. Table 3 presents a detailed description of the strains included in the panel, including some of the sources of the strains of bacteria.
(§3) The glycopeptide antibiotic teicoplanin is included whenever possible.
(§4) TSB, containing 10% HS* for vancomycin intermediate S. aurcus/methicillin-resistant S. aureus (VISA/MRSA) strains, is inoculated from an appropriate source (frozen broth or agar slant) and grown approximately 17 hr at 35° C. with shaking at 220 rpm. Cultures are grown in tubes with a volume of 5 ml for enterococci and 2 ml for all other strains.
(§5) Four milliliter (4 ml) overnight culture is added to 36 ml physiological saline to obtain tenfold dilutions (enterococci). Overnight culture (0.4 ml) is added to 39.6 ml saline to obtain 100-fold dilutions (all strains except enterococci). Diluted cultures are maintained on ice until time of inoculation of test plates.
(§6) The number of CFU/mL is determined on BHI agar plates, although this is not done routinely because titers of overnight cultures are relatively constant. The test media include: • BHI for enterococci and VISA/MRSA; • MH II (i.e., cation-adjusted Mueller-Hinton broth) for MRS, MSS and E. coli.; • MH II+HSA for MSSA is prepared as follows: • a. 2×MHII+86mg/ml HSA • b. Dissolve 4.3 g HSA in 50 ml autoclaved 2x MH II. • c. pH to 7.0 by adding 2M MOPS, sodium. • d. Filter sterilize using 0.22 μm Coming cellulose acetate filter, used because of reported low protein binding. • e. 1×MH II+43 mg/ml HSA • f. Dilute the 2×medium twofold and filter as above. 5.8.6. Preparation of Test Plates
(§7) Using a Denley liquid handling system (or similar automatic device), 100 μ1×medium is added to each well in columns 2-12 of a 96-well microtiter dish. Using a multichannel pipettor, 100 μl 2×medium is added to each well in column 1. Plates may be filled on the day prior to assay, wrapped in plastic bags and refrigerated.
(§8) Vancomycin, Schering 29482, and teicoplanin are prepared on a weight per volume basis using 10 mM 3-(N-morpholino)propane-sulfonic acid (MOPS) buffer pH 7. Test compounds are received in solution in appropriate solvent (typically as 1 mg/ml in DMSO) or are dissolved in appropriate solvent prior to further dilution in 10 mM MOPS buffer, ph7. Consistent with NCCLS guidelines, antibiotics are handled aseptically but are not otherwise sterilized.
(§9) 100 μl appropriately diluted antibiotic solution is added to the first well of the designated row of the 96-well microtiter dish and serially diluted by twofold across the row using the Denley liquid handling system. With the aid of a Dynatech NEC 2000 inoculator, each well of the microtiter dish is inoculated with 1.5 μl diluted overnight culture, yielding approximately 1-5×10^6 CFU/ml for enterococci and approximately 3-7×10^5 CFU/ml for all other strains. Dishes are placed in stacks of no more than five, wrapped in plastic bags and incubated at 35° C. • Indication of result(s) type (% INH, IC50, Zone size, etc.) • MIC=minimum inhibitory concentration ps 5.8.9. Interpretation of the Results on the Basis of Activity […]

[2] = tested on: E. faecium CL 4931 (VanA); experiment: microbe, parasite or virus in culture; format: cell-based; set-up: CL4931 (in vitro testing): unit not given here; details: Tables 7 and 8; unit not given
Excerpt: as §1, §2, §3, §4, §5, §6, §7, §8, §9

[3] = tested on: CL 4931, CL 5053, CL 5242 and CL 4877; format: cell-based, E. faecium, E. faecalis; set-up: unit not given here; details: mean of CL4931, CL5053, CL5242, CL4877; unit not given
Excerpt: as §1, §2, §3, §4, §5, §6, §7, §8, §9

[4] = tested on: E. faecalis CL 4877 (VanB); experiment: microbe, parasite or virus in culture; format: cell-based; set-up: CL4877 (in vitro testing): unit not given here; details: Tables 7 and 8; unit not given
Excerpt: as §1, §2, §3, §4, §5, §6, §7, §8, §9

[5] = tested on: E. faecium CL 5242 (VanA); experiment: microbe, parasite or virus in culture; format: cell-based; set-up: CL5242 (in vitro testing): unit not given here; details: Tables 7 and 8; unit not given
Excerpt: as §1, §2, §3, §4, §5, §6, §7, §8, §9

Compound | CL5053 (in vitro testing) [1] | CL4931 (in vitro testing) [2] | Mean [3] | CL4877 (in vitro testing) [4] | CL5242 (in vitro testing) [5]
CNC(CC(C)C)C(=O)NC1C(=O)NC(CC(N)=O)C(=O)NC2C(=O)NC3C(=O)NC(C(=O)NC(C(=O)O)c4cc(O)cc(O)c4-c4cc3ccc4O)C(O)c3ccc(c(Cl)c3)Oc3cc2cc(c3OC2OC(CNCc3ccco3)C(O)C(O)C2OC2CC(C)(NCc3ccc(OCc4ccc(Cl)c(Cl)c4)cc3)C(O)C(C)O2)Oc2ccc(cc2Cl)C1O (stereo not drawn) [Compound 145] | 8 | 8 | 4.4 | 0.5 | 1
CNC(CC(C)C)C(=O)NC1C(=O)NC(CC(N)=O)C(=O)NC2C(=O)NC3C(=O)NC(C(=O)NC(C(=O)O)c4cc(O)cc(O)c4-c4cc3ccc4O)C(O)c3ccc(c(Cl)c3)Oc3cc2cc(c3OC2OC(CNCCO)C(O)C(O)C2OC2CC(C)(NCc3ccc(OCc4ccc(Cl)c(Cl)c4)cc3)C(O)C(C)O2)Oc2ccc(cc2Cl)C1O (stereo not drawn) [Compound 146] | 8 | 8 | 4.4 | 0.5 | 1
CNCC1OC(Oc2c3cc4cc2Oc2ccc(cc2Cl)C(O)C2NC(=O)C(NC(=O)C4NC(=O)C(CC(N)=O)NC(=O)C(NC(=O)C(CC(C)C)NC)C(O)c4ccc(c(Cl)c4)O3)c3ccc(O)c(c3)-c3c(O)cc(O)cc3C(C(=O)O)NC2=O)C(OC2CC(C)(NCc3ccc(OCc4ccc(Cl)c(Cl)c4)cc3)C(O)C(C)O2)C(O)C1O (stereo not drawn) [Compound 147] | 8 | 4 | 4.5 | 4 | 2
CCCNCC1OC(Oc2c3cc4cc2Oc2ccc(cc2Cl)C(O)C2NC(=O)C(NC(=O)C4NC(=O)C(CC(N)=O)NC(=O)C(NC(=O)C(CC(C)C)NC)C(O)c4ccc(c(Cl)c4)O3)c3ccc(O)c(c3)-c3c(O)cc(O)cc3C(C(=O)O)NC2=O)C(OC2CC(C)(NCc3ccc(OCc4ccc(Cl)c(Cl)c4)cc3)C(O)C(C)O2)C(O)C1O (stereo not drawn) [Compound 148] | 8 | 8 | 4.5 | 1 | 1
CNC(CC(C)C)C(=O)NC1C(=O)NC(CC(N)=O)C(=O)NC2C(=O)NC3C(=O)NC(C(=O)NC(C(=O)O)c4cc(O)cc(O)c4-c4cc3ccc4O)C(O)c3ccc(c(Cl)c3)Oc3cc2cc(c3OC2OC(CNCc3ccc(Cl)cc3)C(O)C(O)C2OC2CC(C)(NCc3ccc(OCc4ccc(Cl)c(Cl)c4)cc3)C(O)C(C)O2)Oc2ccc(cc2Cl)C1O (stereo not drawn) [Compound 149] | 8 | 8 | 4.6 | 0.25 | 2
C=CCNCC1OC(Oc2c3cc4cc2Oc2ccc(cc2Cl)C(O)C2NC(=O)C(NC(=O)C4NC(=O)C(CC(N)=O)NC(=O)C(NC(=O)C(CC(C)C)NC)C(O)c4ccc(c(Cl)c4)O3)c3ccc(O)c(c3)-c3c(O)cc(O)cc3C(C(=O)O)NC2=O)C(OC2CC(C)(NCc3ccc(OCc4ccc(Cl)c(Cl)c4)cc3)C(O)C(C)O2)C(O)C1O (stereo not drawn) [Compound 150] | 8 | 8 | 5.5 | 4 | 2
CNC(CC(C)C)C(=O)NC1C(=O)NC(CC(N)=O)C(=O)NC2C(=O)NC3C(=O)NC(C(=O)NC(C(=O)O)c4cc(O)cc(O)c4-c4cc3ccc4O)C(O)c3ccc(c(Cl)c3)Oc3cc2cc(c3OC2OC(CNC(=O)Cc3ccccc3)C(O)C(O)C2OC2CC(C)(NCc3ccc(OCc4ccc(Cl)c(Cl)c4)cc3)C(O)C(C)O2)Oc2ccc(cc2Cl)C1O (stereo not drawn) [Compound 151] | 16 | 8 | 6.6 | 0.5 | 2
CNC(CC(C)C)C(=O)NC1C(=O)NC(CC(N)=O)C(=O)NC2C(=O)NC3C(=O)NC(C(=O)NC(C(=O)O)c4cc(O)cc(O)c4-c4cc3ccc4O)C(O)c3ccc(c(Cl)c3)Oc3cc2cc(c3OC2OC(CNCc3ccccc3Cl)C(O)C(O)C2OC2CC(C)(NCc3ccc(OCc4ccc(Cl)c(Cl)c4)cc3)C(O)C(C)O2)Oc2ccc(cc2Cl)C1O (stereo not drawn) [Compound 153] | 16 | 8 | 7.0 | 0.12 | 4
CNC(CC(C)C)C(=O)NC1C(=O)NC(CC(N)=O)C(=O)NC2C(=O)NC3C(=O)NC(C(=O)NC(C(=O)O)c4cc(O)cc(O)c4-c4cc3ccc4O)C(O)c3ccc(c(Cl)c3)Oc3cc2cc(c3OC2OC(CNCC3CCNCC3)C(O)C(O)C2OC2CC(C)(NCc3ccc(OCc4ccc(Cl)c(Cl)c4)cc3)C(O)C(C)O2)Oc2ccc(cc2Cl)C1O (stereo not drawn) [Compound 155] | 16 | 16 | 9.3 | 1 | 4
CNC(CC(C)C)C(=O)NC1C(=O)NC(CC(N)=O)C(=O)NC2C(=O)NC3C(=O)NC(C(=O)NC(C(=O)O)c4cc(O)cc(O)c4-c4cc3ccc4O)C(O)c3ccc(c(Cl)c3)Oc3cc2cc(c3OC2OC(CNCC3CCCCO3)C(O)C(O)C2OC2CC(C)(NCc3ccc(OCc4ccc(Cl)c(Cl)c4)cc3)C(O)C(C)O2)Oc2ccc(cc2Cl)C1O (stereo not drawn) [Compound 156] | 16 | 16 | 9.5 | 4 | 2
CNC(CC(C)C)C(=O)NC1C(=O)NC(CC(N)=O)C(=O)NC2C(=O)NC3C(=O)NC(C(=O)NC(C(=O)O)c4cc(O)cc(O)c4-c4cc3ccc4O)C(O)c3ccc(c(Cl)c3)Oc3cc2cc(c3OC2OC(CNCCC#N)C(O)C(O)C2OC2CC(C)(NCc3ccc(OCc4ccc(Cl)c(Cl)c4)cc3)C(O)C(C)O2)Oc2ccc(cc2Cl)C1O (stereo not drawn) [Compound 157] | 16 | 16 | 10.0 | 4 | 4
CNC(CC(C)C)C(=O)NC1C(=O)NC(CC(N)=O)C(=O)NC2C(=O)NC3C(=O)NC(C(=O)NC(C(=O)O)c4cc(O)cc(O)c4-c4cc3ccc4O)C(O)c3ccc(c(Cl)c3)Oc3cc2cc(c3OC2OC(CNCc3ccc(Cl)c(Cl)c3)C(O)C(O)C2OC2CC(C)(NCc3ccc(OCc4ccc(Cl)c(Cl)c4)cc3)C(O)C(C)O2)Oc2ccc(cc2Cl)C1O (stereo not drawn) [Compound 158] | 16 | 16 | 10.0 | 4 | 4
